Assay results taken from patent US11072633B2 (priority 2016, dated 2021).
≈ marks a conversion by molar mass, not a printed value. Where two headings read alike, the source gives them in different places.

Key:
M. tuberculosis CDC1551 [1] = assay: microbe, parasite or virus in culture; assay type: cell-based; details: for MIC: Mycobacterium tuberculosis; for Aerobic MIC of CLOF: CLOF with 10 μM 6-azasteroid
Mtb = assay: Isoniazid MIC shift on Mtb MIC plates (broth microdilution MIC); assay type: cell-based, M. tuberculosis; details: for MIC: Mycobacterium tuberculosis
RIF-R2 (ATCC35838) = assay: microbe, parasite or virus in culture; assay type: cell-based; details: Mycobacterium tuberculosis, single drug
[2] = system: M. tuberculosis constitutively expressing the luxABCDE operon; assay: microbe, parasite or virus in culture; assay type: cell-based; details: for MIC: Mycobacterium tuberculosis, read-out: LORA MIC of INH; for activity under low oxygen conditions: in combination with isoniazid
M. tuberculosis = assay: Minimum Bactericidal Concentration (MBC); assay type: cell-based; details: Mycobacterium tuberculosis
M. tuberculosis CDC1551 [3] = assay: In vitro kill kinetics / time-kill (FIG. 2, FIG. 3); assay type: cell-based; details: for rapid killing with mono-treatment: mono-treatment at 10-20 μM, 15 days, FIG. 2
in vitro [4] = assay type: in vitro ADME; details: human; for Papp A→B at 2 h, 5 μM: Caco-2, pH 7.4, Papp(A-B)
Protocol: (§1) Caco-2 cells were diluted to 6.86×10^6 cells/mL, dispensed into a 96-well HTS Transwell plate, and cultured for 14 to 18 days. 6-azasteroids at 5 μM was incubated at 37° C. for 2 hours with the Caco-2 cell monolayer in HBSS buffer (10 mM HEPES, pH 7.4) containing 5% BSA. Aliquots from donor sides (apical compartment for Ap→Bl flux, and basolateral compartment for Bl→Ap) and receiver sides (basolateral compartment for Ap→Bl flux, and apical compartment for Bl→Ap) were separated and extracted by acetonitrile or methanol containing appropriate internal standards (IS). The concentration of 6-azasteroid was determined by LC-MS/MS analysis.
(§2) Elution rate: 0.65 mL/min.
(§3) To predict absorption via oral administration, Caco-2 bidirectional permeability assay was performed (Table 8).

Caco-2 cell line = assay: in vitro; assay type: in vitro ADME; details: for substrate for P-gp transporter: Caco-2; for intestinal absorption suggested by Papp(A-B): Caco-2, 5 μM
Protocol: as §1, §2, §3

hERG = molecular target: T1, hERG (Homo sapiens, UniProt Q12809); assay: hERG assay (hERG currents in HEK 293 cells); assay type: cell-based; details: hERG stably expressed HEK 293 cells
T1 construct: expressed in transfected cells
T1 sequence (Q12809 whole entry): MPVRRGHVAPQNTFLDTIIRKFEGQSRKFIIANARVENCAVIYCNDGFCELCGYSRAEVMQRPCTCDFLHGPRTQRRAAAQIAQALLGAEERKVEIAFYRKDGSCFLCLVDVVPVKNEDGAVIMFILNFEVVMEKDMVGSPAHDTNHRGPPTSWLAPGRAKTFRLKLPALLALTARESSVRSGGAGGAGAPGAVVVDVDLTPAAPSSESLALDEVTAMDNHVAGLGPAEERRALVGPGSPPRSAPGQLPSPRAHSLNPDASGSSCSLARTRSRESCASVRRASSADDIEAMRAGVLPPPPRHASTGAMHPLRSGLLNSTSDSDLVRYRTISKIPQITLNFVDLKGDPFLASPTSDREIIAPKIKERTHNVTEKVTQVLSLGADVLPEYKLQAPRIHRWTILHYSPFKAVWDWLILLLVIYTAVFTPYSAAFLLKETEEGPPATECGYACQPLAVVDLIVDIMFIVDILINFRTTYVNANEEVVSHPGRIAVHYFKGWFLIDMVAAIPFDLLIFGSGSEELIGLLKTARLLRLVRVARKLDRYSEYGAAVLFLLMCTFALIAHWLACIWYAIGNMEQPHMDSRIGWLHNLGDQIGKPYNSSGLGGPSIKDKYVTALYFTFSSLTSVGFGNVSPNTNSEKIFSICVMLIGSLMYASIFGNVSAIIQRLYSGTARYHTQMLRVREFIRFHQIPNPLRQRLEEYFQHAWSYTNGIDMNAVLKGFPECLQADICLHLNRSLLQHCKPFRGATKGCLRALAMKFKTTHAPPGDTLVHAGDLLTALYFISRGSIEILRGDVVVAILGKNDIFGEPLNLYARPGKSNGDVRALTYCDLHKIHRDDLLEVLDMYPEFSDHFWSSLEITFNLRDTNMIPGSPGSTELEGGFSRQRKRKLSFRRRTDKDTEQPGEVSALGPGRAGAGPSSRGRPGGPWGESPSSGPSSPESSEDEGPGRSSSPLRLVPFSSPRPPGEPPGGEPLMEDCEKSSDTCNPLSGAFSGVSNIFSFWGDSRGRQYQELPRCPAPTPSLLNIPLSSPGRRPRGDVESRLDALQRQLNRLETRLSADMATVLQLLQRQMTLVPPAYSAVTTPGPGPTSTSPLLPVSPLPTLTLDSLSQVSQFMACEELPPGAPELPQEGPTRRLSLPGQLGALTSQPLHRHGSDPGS
Protocol: hERG stably expressed HEK 293 cells were seeded at 5×10^5 cells/per 6 cm cell culture dish and induced with doxycycline at 1 μg/mL for 48 hours. Compound at the final concentrations of 30, 10, 3.33, 1.11 and 0.37 μM was applied to the cells accumulatively, post-compound hERG currents were recorded, and IC50 was calculated. Dofetilide was used as a positive control.
To predict the potential cardiotoxic effects of 6-azastroids, human ether-a-go-go related gene (hERG) assay was applied to 100, 107 and 114 (Table 9). Cytotoxicity of 107 was also assessed (Table 10).

[5] = both, human, microsomes, 2 μM, pH 7.4; for Remaining Percentage with NADPH, 0 min: 0 h; for Remaining Percentage with NADPH, 15 min: 0.25 h; for Remaining Percentage with NADPH, 30 min: 0.5 h; for Remaining Percentage with NADPH, 45 min: 0.75 h; for Remaining Percentage with NADPH, 60 min: 1 h
in vitro [6] = details: both, human, microsomes, pH 7.4
[7] = Metabolic stability in human liver microsomes; details: both, pH 7.4
[8] = system: luminescent strain of H37Rv in infected J774A.1 cells; assay: microbe, parasite or virus in culture; assay type: cell-based, M. tuberculosis; details: for IC50 / IC90: Mycobacterium tuberculosis, H37RV, J774.A1, single compound, 72 h treatment
[9] = system: M. tuberculosis constitutively expressing the luxABCDE operon; details: isoniazid alone (Cho, S. H. et al. 2007), cited from earlier work
[10] = 10 mg/kg IP injection once per day, seven days per week, for 40 days
[11] = human liver microsomes, value by Frye (Frye, S. V. 2006); cited from earlier work
[12] = CDC1551, BDQ with 10 μM 6-azasteroid, read-out: Aerobic MIC of BDQ
[13] = 504 h, single compound, 2-log kill in 21 days, read-out: MBC
[14] = CDC1551, TB drug alone, read-out: Aerobic MIC
[15] = CDC1551, Pa (pretomanid) with 10 μM 6-azasteroid, read-out: Aerobic MIC of Pa

SMILES: CC(=O)NC[C@H]1CN(c2ccc(N3CCOCC3)c(F)c2)C(=O)O1 [LIN, linezolid]
- MIC (M. tuberculosis CDC1551 [1]; CDC1551, read-out: Aerobic MIC): 0.8 µM (≈ 0.27 µg/mL)

SMILES: CC1C[C@@]2(C)C(=CC1=O)N(C)CC1C2CC[C@@]2(C)C1CC[C@@H]2C(=O)Nc1cc(C(C)(C)C)ccc1C(C)(C)C (some centres unmarked) [Compound 104]
- Isoniazid MIC shift (Mtb): ++ (4-8-fold ++)

SMILES: C[C@H]1COc2c(N3CCN(C)CC3)c(F)cc3c(=O)c(C(=O)O)cn1c23 [Levofloxacin]
- MIC (RIF-R2 (ATCC35838)): 2.4 µM (≈ 0.867 µg/mL)

SMILES: CCCN1CC2C(CC[C@@]3(C)C2CC[C@@H]3C(=O)Nc2cc(C(C)(C)C)ccc2C(C)(C)C)[C@@]2(C)CCC(=O)C=C12 (some centres unmarked) [Compound 114]
- Isoniazid MIC shift (Mtb): +++ (>10-fold +++)
- Aerobic MIC of CLOF (M. tuberculosis CDC1551 [1]): NC^b
- MIC (M. tuberculosis CDC1551 [1]; [12]): < 0.0015 µM
- MIC ([2]; INH with 55 μM 6-azasteroid): 2.75 µM
- activity under low oxygen conditions [2]: active
- MBC (M. tuberculosis; [13]): > 40 µM
- MBC (M. tuberculosis; BDQ with 10 μM 114, read-out: MBC of BDQ): 0.025 µM
- MBC (M. tuberculosis; INH with 13 μM 114, read-out: MBC of INH): 0.7 µM
- effect on bactericidal activity of bedaquiline (M. tuberculosis CDC1551 [3]): improves bactericidal activity of bedaquiline
- rapid killing with mono-treatment (M. tuberculosis CDC1551 [3]): no rapid killing in 15 days
- efflux ratio at 2 h, 5 μM (in vitro [4]; Caco-2, pH 7.4, Efflux Ratio): 0.87
- Papp A→B at 2 h, 5 μM (in vitro [4]): 0.85 ×10⁻⁶ cm/s
- efflux ratio at 2 h, 5 μM (in vitro [4]; Caco-2, pH 7.4, efflux ratio): ~0.5
- substrate for P-gp transporter (Caco-2 cell line): not a substrate for P-gp transporter
- intestinal absorption suggested by Papp(A-B) (Caco-2 cell line; human, pH 7.4): over 50%
- Efflux Ratio (Caco-2 cell line; human, Caco-2, 2 h, 5 μM, pH 7.4): 0.48
- IC50 (hERG): 739 nM
- Remaining Percentage with NADPH, 0 min [5]: 100.00%
- Remaining Percentage with NADPH, 15 min [5]: 24.89%
- Remaining Percentage with NADPH, 30 min [5]: 4.76%
- Remaining Percentage with NADPH, 45 min [5]: 1.68%
- Remaining Percentage with NADPH, 60 min [5]: 0.96%
- microsomal CLint at 2 μM (in vitro [6]): 73.2 µL/min/mg
- half-life at 2 μM [7]: 18.9 min

SMILES: CC(C)/N=c1\cc2n(-c3ccc(Cl)cc3)c3ccccc3nc-2cc1Nc1ccc(Cl)cc1 [CLOF, clofazimine]
- MIC (M. tuberculosis CDC1551 [1]; [14]): 2 µM (≈ 0.947 µg/mL)

SMILES: COc1c(N2C[C@@H]3CCCN[C@@H]3C2)c(F)cc2c(=O)c(C(=O)O)cn(C3CC3)c12 [MOXI, moxifloxacin]
- MIC (M. tuberculosis CDC1551 [1]; [14]): 0.18 µM (≈ 0.0723 µg/mL)

SMILES: CC(C)(C)c1cc(NC(=O)[C@H]2CCC3C4CNC5=CC(=O)CC[C@]5(C)C4CC[C@@]32C)cc(C(C)(C)C)c1 (some centres unmarked) [Compound 109]
- Isoniazid MIC shift (Mtb): ++ (4-8-fold ++)

SMILES: NNC(=O)c1ccncc1 [INH, isoniazid]
- MIC (Mtb; isoniazid without 6-azasteroid, read-out: MIC for isoniazid): 0.4 µM
- MIC (Mtb; read-out: MIC for isoniazid alone): 0.2 to 0.4 µM
- MIC (M. tuberculosis CDC1551 [1]; [14]): 0.2 to 0.4 µM (≈ 0.0274 to 0.0549 µg/mL)
- MBC (M. tuberculosis; [13]): > 230 µM
- MIC (RIF-R2 (ATCC35838)): 0.6 µM (≈ 0.0823 µg/mL)
- IC50 [8]: ~1500 nM
- IC90 [8]: > 6000 nM
- LORA MIC [9]: >128 µM
- LORA MIC ([9]; listed as isoniazid): > 128 µM

SMILES: CCc1cc(C(N)=S)ccn1 [ETH, ethionamide]
- MIC (M. tuberculosis CDC1551 [1]; CDC1551, read-out: Aerobic MIC): 12.5 µM (≈ 2.08 µg/mL)

SMILES: COc1nc(OC(F)(F)F)c(NC(=O)C2CCC3C4CNC5=CC(=O)CC[C@]5(C)C4CC[C@]23C)cc1Br (some centres unmarked) [Compound 105]
- Isoniazid MIC shift (Mtb): + (2-4-fold +)
- MIC (M. tuberculosis CDC1551 [1]; [15]): 0.0002 µM

SMILES: CC(C)(C)OC(=O)N1CC2C(CC[C@@]3(C)C2CC[C@@H]3C(=O)Nc2cc(C(F)(F)F)ccc2C(F)(F)F)[C@@]2(C)CCC(=O)C=C12 (some centres unmarked) [Compound 103]
- Isoniazid MIC shift (Mtb): +++ (>10-fold +++)

SMILES: CN1CC2C(CC[C@@]3(C)C2CC[C@@H]3C(=O)Nc2cc(C(C)(C)C)ccc2C(C)(C)C)[C@@]2(C)CCC(=O)C=C12 (some centres unmarked) [Compound 113]
- Isoniazid MIC shift (Mtb): +++ (>10-fold +++)

SMILES: CC(C)(C)c1ccc(C(C)(C)C)c(NC(=O)[C@H]2CCC3C4CNC5=CC(=O)CC[C@]5(C)C4CC[C@@]32C)c1 (some centres unmarked) [Compound 100]
- Isoniazid MIC shift (Mtb): +++ (>10-fold +++)
- Aerobic MIC of CLOF (M. tuberculosis CDC1551 [1]): NC^b
- MIC (M. tuberculosis CDC1551 [1]; [12]): 0.01 µM
- MIC (M. tuberculosis CDC1551 [1]; [15]): 0.0002 µM
- MIC ([2]; INH with 15 μM 6-azasteroid): 0.75 µM
- activity under low oxygen conditions [2]: active
- MBC (M. tuberculosis; INH with 12 μM 100, read-out: MBC of INH): 0.6 µM
- rapid killing with mono-treatment (M. tuberculosis CDC1551 [3]): no rapid killing in 15 days
- Papp A→B at 2 h, 5 μM (in vitro [4]): 1.4 ×10⁻⁶ cm/s
- efflux ratio at 2 h, 5 μM (in vitro [4]; Caco-2, pH 7.4, efflux ratio): ~0.5
- substrate for P-gp transporter (Caco-2 cell line): not a substrate for P-gp transporter
- intestinal absorption suggested by Papp(A-B) (Caco-2 cell line; human, pH 7.4): over 50%
- IC50 (hERG): 953 nM
- improvement of the potency of INH ([8]; 100 at 20 μM): 10 fold
- IC50 [8]: 3000 nM
- IC90 [8]: > 40000 nM
- Remaining Percentage with NADPH, 0 min [5]: 100.00%
- Remaining Percentage with NADPH, 15 min [5]: 65.83%
- Remaining Percentage with NADPH, 30 min [5]: 55.21%
- Remaining Percentage with NADPH, 45 min [5]: 48.69%
- Remaining Percentage with NADPH, 60 min [5]: 37.91%
- toxicity [10]: no toxicity was observed
- CLint scaled at 2 μM (in vitro [6]): 37.5 mL/min/kg
- microsomal CLint at 2 μM (in vitro [6]): 29.9 µL/min/mg
- T1/2 previously reported [11]: 164 min
- half-life at 2 μM [7]: 46.3 min

SMILES: CO[C@H]1/C=C/O[C@@]2(C)Oc3c(C)c(O)c4c(O)c(c(/C=N/N5CCN(C)CC5)c(O)c4c3C2=O)NC(=O)/C(C)=C\C=C\[C@H](C)[C@H](O)[C@@H](C)[C@@H](O)[C@@H](C)[C@H](OC(C)=O)[C@@H]1C [Rifampicin]
- MIC (RIF-R2 (ATCC35838)): > 50 µM

SMILES: O=[N+]([O-])c1cn2c(n1)OC[C@@H](OCc1ccc(OC(F)(F)F)cc1)C2 [Pa, pretomanid]
- MIC (M. tuberculosis CDC1551 [1]; [14]): 0.00625 µM (≈ 0.00225 µg/mL)

SMILES: COc1nc2ccc(Br)cc2cc1[C@@H](c1ccccc1)[C@@](O)(CCN(C)C)c1cccc2ccccc12 [BDQ, bedaquiline, reference compound]
- MIC (M. tuberculosis CDC1551 [1]; [14]): 0.1 µM (≈ 0.0556 µg/mL)
- MBC (M. tuberculosis; [13]): 0.5 µM (≈ 0.278 µg/mL)
